# Source: US20210268009A1, “Composition For Preventing Hair Loss Or Promoting Hair Regrowth” (LG Household & Health Care Ltd., priority 2018, published 2021)
# Experiments:
# [1] = system: Human-derived dermal papilla cells (DPCs); assay: Dermal papilla cell proliferation, CCK-8 (Experimental Example 6); type: cell-based; settings: for Dermal Papilla Cell Proliferation Ability (%): one day, control = 100; for proliferation of dermal papilla cells, result in words: summary of Table 8
# Experimental: Human-derived dermal papilla cells (DPCs) were purchased from PromoCell GmbH. The DPCs were cultured in a DMEM medium (Hyclone Inc., Utah, USA) containing 5% of fetal bovine serum (FBS; Gibco, NY, USA), 10 units/mL of penicillin and 100 μg/mL of streptomycin at 37° C. under 5% of CO2. The cultured DPCs were pipetted to a 96-well plate at 3,000 cells/well and cultured under the condition of 0.1% of serum for 24 hours. Then, the cultured cells were treated with 10 μg/mL of each of the samples of rhaponticin, rhein, chrysophanol, physicon-8-O-glucopyranoside and combinations thereof as shown in the following Table 8 for one day and then incubated, and DMSO (vehicle) diluted to 1:1000 in serum-free DMEM was used as a control and 2 μg/mL of minoxidil was used as a positive control . After incubation, a cell counting kit (CCK) was used to evaluate proliferation of cells. The culture medium was treated with CCK-8 at a ratio of 1:10, followed by incubation for 1 hour. After 1 hour, the absorbance of each well was determined at 450 nm. All tests were repeated three times and the average of absorbance value was calculated. The results are shown by the percentage of a test group as the result of the control is taken as 100.
# VEGF = assay: Real-time PCR gene expression in dermal papilla cells: VEGF; type: cell-based, human; settings: for Expression of Genes (%): VEGF: non-treated group = 100; for expression of VEGF, result in words: summary of Table 10
# Text: (§1) In general, it is known that VEGF, IGF-1, FGF, or the like, secreted in dermal papilla cells induce an anagen stage of hair. In addition, versican is known as a marker of an anagen stage of hair and DKK-1 is known as a marker of a catagen stage of hair. Therefore, effects of rhaponticin, rhein, chrysophanol and physicon-O-d-glucopyranoside upon the signals of accelerating an anagen stage and those of inducing a catagen stage in dermal papilla cells were examined according to the present disclosure. In a 6-well culture plate, dermal papilla cells were seeded to each well at 1×10^5 and treated with 10 μg/mL of each of the samples of rhaponticin, rhein, chrysophanol, physicon-O-d-glucopyranoside and combinations thereof as shown in the following Table 10. Then, real-time PCR was used to determine expression of each of VEGF, versican and DKK-1 by using Taqman® probe (Thermo Fisher, Massachusetts, USA) as shown in the following Table 9. [table]
# Versican = assay: Real-time PCR gene expression in dermal papilla cells: versican; type: cell-based, human; settings: for Expression of Genes (%): Versican: non-treated group = 100; for expression of versican, result in words: summary of Table 10
# Text: as §1
# DKK-1 = assay: Real-time PCR gene expression in dermal papilla cells: DKK-1; type: cell-based, human; settings: for Expression of Genes (%): DKK-1: non-treated group = 100; for expression of DKK-1, result in words: summary of Table 10
# Text: as §1
# [2] = system: Wnt/β-catenin promoter activity (Wnt reporter HEK293SA cells); assay: Wnt/β-catenin promoter luciferase reporter analysis; type: cell-based; settings: escin 5, 10 and 20 μg/mL, FIG. 1
# Experimental: In general, Wnt/β-catenin signals activated in dermal papilla cells are generated while a transition from a […] to an anagen stage occurs in the hair growth cycle, i.e. during a period from beginning of hair growth to an activation stage of hair growth. In addition, in a telogen stage and catagen stage, Wnt/β-catenin signals become weak or disappear to cause degradation of hair follicles and depilation. In this Experimental Example, it is determined how escin contributes to amplification of Wnt/β-catenin signals.
# As a positive control which amplifies Wnt/β-catenin signals, wnt3a protein was used. In addition, dimethyl sulfoxide (DMSO) was used as a negative control. In a 96-well culture plate, approximately 3×10^4 of Wnt reporter HEK293SA cells were seeded to each well and treatment with escin was carried out at a concentration of 5 μg/mL, 10 μg/mL and 20 μg/mL. Then, a luciferase assay kit (E1960) available from Promega Corp. was used to carry out reporter analysis according to the test method provided by the company. In addition, luminometer Victor (Perkin Elmer, Waltham, Mass., USA) was used to determine Wnt/β-catenin promoter activity.
# [3] = system: Human-derived dermal papilla cells (DPCs); assay: Dermal papilla cell proliferation, CCK-8 (Experimental Example 2, escin); type: cell-based; settings: one day; for Dermal Papilla Cell Proliferation Ability (%): control = 100
# Experimental: Human-derived dermal papilla cells (DPCs) were purchased from PromoCell GmbH. DPCs were cultured under the conditions of 37° C. and 5% CO2 by using a follicle dermal papilla cell growth medium and supplement mix recommended by PromoCell GmbH. The cultured DPCs were pipetted to a 96-well plate at 3,000 cells/well and cultured for 24 hours in the presence of 0.1% of blood serum. Then, the cultured cells were treated with escin at a concentration of 0.2, 0.5, 1.2 and 5 μg/mL for one day and then incubated, and DMSO (vehicle) diluted to 1:1000 in serum-free DMEM was used as a control. After incubation, a cell counting kit (CCK) was used to evaluate proliferation of cells. The culture medium was treated with CCK-8 at a ratio of 1:10, followed by incubation for 1 hour. After 1 hour, the absorbance of each well was determined at 450 nm. All tests were repeated three times and the average of absorbance value was calculated. The results are shown by the percentage of a test group with the result of the control taken as 100.
# β-catenin = assay: Expression of β-catenin in dermal papilla cells (SDS-PAGE / anti-β-catenin antibody); type: cell-based, human; settings: escin 0.2-5 μg/mL, 1 day; GAPDH control; FIG. 2
# Text: In dermal papilla cells in a catagen stage and a telogen stage, during which Wnt signals are inhibited, β-catenin is decomposed by GSK3-beta. However, in dermal papilla cells in an anagen stage, during which Wnt signals are amplified, activity of GSK3-beta is inhibited and β-catenin is not decomposed, resulting in an increase in expression of β-catenin. Human dermal papilla cells were pipetted to six well plates at about 500,000 cells/well, and treated with escin for 1 day at a concentration of 0.2, 0.5, 1.2 and 5 μg/mL, followed by incubation. After incubation, M-PER lysis buffer was used to cause lysis of the cells and the same amount of cell lysate was loaded on SDS-PAGE gel. The cell lysate loaded on SDS-PAGE gel was transferred to a nitrocellulose membrane and anti-β-catenin antibody was attached to the nitrocellulose membrane to detect protein. GAPDH was used as a control for correcting protein content. The amount of β-catenin increased by escin was determined.
molecule,measurement,setting,value
Cc1cc(O)c2c(c1)C(=O)c1cccc(O)c1C2=O [Chrysophanol],Dermal Papilla Cell Proliferation Ability (%),[1]; 10 μg/mL,152.0%
same,"proliferation of dermal papilla cells, result in words",[1],excellent effect of accelerating proliferation of dermal papilla cells
same,Expression of Genes (%): VEGF,VEGF; 10 μg/mL,250%
same,"expression of VEGF, result in words",VEGF,increase expression of VEGF
same,Expression of Genes (%): Versican,Versican; 10 μg/mL,158%
same,"expression of versican, result in words",Versican,increase expression
same,Expression of Genes (%): DKK-1,DKK-1; 10 μg/mL,123%
same,"expression of DKK-1, result in words",DKK-1,reduce expression of DKK-1
"Nc1cc(N2CCCCC2)nc(N)[n+]1[O-] [Minoxidil, 2,4-diamino-6-piperidinopyrimidine-3-oxide, reference compound]",Dermal Papilla Cell Proliferation Ability (%),[1]; 2 μg/mL,187.2%
same,Expression of Genes (%): VEGF,VEGF; 2 μg/mL,110%
same,Expression of Genes (%): Versican,Versican; 2 μg/mL,134%
same,Expression of Genes (%): DKK-1,DKK-1; 2 μg/mL,128%
COc1cc(OC2OC(CO)C(O)C(O)C2O)c2c(c1)C(=O)c1cc(C)cc(O)c1C2=O (stereo not drawn) [Physicon-8-O-d-glucopyranoside],Dermal Papilla Cell Proliferation Ability (%),[1]; 10 μg/mL,148.3%
same,"proliferation of dermal papilla cells, result in words",[1],excellent effect of accelerating proliferation of dermal papilla cells
same,Expression of Genes (%): VEGF,VEGF; 10 μg/mL,164%
same,"expression of VEGF, result in words",VEGF,increase expression of VEGF
same,Expression of Genes (%): Versican,Versican; 10 μg/mL,175%
same,"expression of versican, result in words",Versican,increase expression
same,Expression of Genes (%): DKK-1,DKK-1; 10 μg/mL,75%
same,"expression of DKK-1, result in words",DKK-1,reduce expression of DKK-1
COc1ccc(/C=C/c2cc(O)cc(O[C@@H]3O[C@H](CO)[C@@H](O)[C@H](O)[C@H]3O)c2)cc1O [Rhaponticin],Dermal Papilla Cell Proliferation Ability (%),[1]; 10 μg/mL,162.7%
same,"proliferation of dermal papilla cells, result in words",[1],excellent effect of accelerating proliferation of dermal papilla cells
same,Expression of Genes (%): VEGF,VEGF; 10 μg/mL,210%
same,"expression of VEGF, result in words",VEGF,increase expression of VEGF
same,Expression of Genes (%): Versican,Versican; 10 μg/mL,130%
same,"expression of versican, result in words",Versican,increase expression
same,Expression of Genes (%): DKK-1,DKK-1; 10 μg/mL,112%
same,"expression of DKK-1, result in words",DKK-1,reduce expression of DKK-1
O=C(O)c1cc(O)c2c(c1)C(=O)c1cccc(O)c1C2=O [Rhein],Dermal Papilla Cell Proliferation Ability (%),[1]; 10 μg/mL,152.7%
same,"proliferation of dermal papilla cells, result in words",[1],excellent effect of accelerating proliferation of dermal papilla cells
same,Expression of Genes (%): VEGF,VEGF; 10 μg/mL,144%
same,"expression of VEGF, result in words",VEGF,increase expression of VEGF
same,Expression of Genes (%): Versican,Versican; 10 μg/mL,154%
same,"expression of versican, result in words",Versican,increase expression
same,Expression of Genes (%): DKK-1,DKK-1; 10 μg/mL,76%
same,"expression of DKK-1, result in words",DKK-1,reduce expression of DKK-1
Escin,Wnt/β-catenin signal effect compared to the positive control wnt3a protein,[2],higher effect as compared to the positive control
same,amplification of Wnt/β-catenin signals as compared to the non-treated negative control,"[2]; no concentration dependence, clear effect at about 20 μg/mL",approximately 11 times
same,Dermal Papilla Cell Proliferation Ability (%),[3]; 0.2 μg/mL,168.8%
same,Dermal Papilla Cell Proliferation Ability (%),[3]; 0.5 μg/mL,198.7%
same,Dermal Papilla Cell Proliferation Ability (%),[3]; 1 μg/mL,194.4%
same,Dermal Papilla Cell Proliferation Ability (%),[3]; 2 μg/mL,204.8%
same,Dermal Papilla Cell Proliferation Ability (%),[3]; 5 μg/mL,208.3%
same,"DPC proliferation, result in words",[3]; escin 0.2-5 μg/mL,shows an effect of DPC proliferation
same,"amount of β-catenin in dermal papilla cells, result in words",β-catenin,significant increase in amount of β-catenin
